target: GST-tagged-Wee1 kinase (Homo sapiens, UniProt P30291); assay: Wee1 time-resolved fluorescence equilibrium binding assay (displacement of Oregon Green-labeled ATP-competitive kinase probe)
Protocol: Wee1 kinase was assayed using a time-resolved fluorescence equilibrium binding assay monitoring displacement of a rapidly reversible Oregon Green-labeled ATP-competitive kinase probe (N-(2-(2-(2-(4-(4-(5-chloro-4-(2-(1-hydroxycyclobutyl)thiazol-5-yl)-1H-pyrrolo[2,3-b]pyridin-2-yl)phenyl)piperazin-1-yl)ethoxy)ethoxy)ethyl)-2′,7′-difluoro-3′,6′-dihydroxy-3-oxo-3H-spiro[isobenzofuran-1,9′-xanthene]-5-carboxamide) by competitive Wee1 inhibitors.

Sequence of GST-tagged-Wee1 kinase (P30291 whole entry): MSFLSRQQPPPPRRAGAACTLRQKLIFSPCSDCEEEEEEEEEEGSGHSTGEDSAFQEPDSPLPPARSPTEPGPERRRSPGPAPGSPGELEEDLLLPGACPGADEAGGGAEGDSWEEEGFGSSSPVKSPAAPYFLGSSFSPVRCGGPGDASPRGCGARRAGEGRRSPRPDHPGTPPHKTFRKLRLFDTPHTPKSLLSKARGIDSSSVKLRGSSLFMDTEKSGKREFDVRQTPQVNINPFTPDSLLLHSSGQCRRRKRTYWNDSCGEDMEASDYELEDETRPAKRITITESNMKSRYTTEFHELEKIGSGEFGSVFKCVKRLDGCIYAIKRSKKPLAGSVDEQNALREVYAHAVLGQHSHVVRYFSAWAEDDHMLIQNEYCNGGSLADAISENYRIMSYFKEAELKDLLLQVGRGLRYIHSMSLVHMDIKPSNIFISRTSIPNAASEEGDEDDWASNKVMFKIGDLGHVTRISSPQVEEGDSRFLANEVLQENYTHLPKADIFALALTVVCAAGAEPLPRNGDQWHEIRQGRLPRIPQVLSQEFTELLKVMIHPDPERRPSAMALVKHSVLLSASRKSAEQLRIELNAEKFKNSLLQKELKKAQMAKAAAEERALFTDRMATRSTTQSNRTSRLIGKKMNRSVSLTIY

**Q.** How did the Ki turn out when `Cc1ccccc1-n1nc(-c2cccs2)c2nc(Nc3ccc4c(c3)CN(C)CC43CC3)ncc2c1=O` [Example 130, 2-[(2′-methyl-2′,3′-dihydro-1′H-spiro[cyclopropane-1,4′-isoquinolin]-7′-yl)amino]-6-(2-methylphenyl)-8-(2-thienyl)pyrimido[4,5-d]pyridazin-5(6H)-one] was run?
**A.** 0.4 nM

**Q.** How did the Ki turn out when `CC(C)N1CCN(c2ccc(Nc3ncc4c(=O)n(-c5ccccc5Cl)nc(-c5ccccc5)c4n3)cc2)CC1` [Example 131, 6-(2-chlorophenyl)-2-{[4-(4-isopropylpiperazin-1-yl)phenyl]amino}-8-phenylpyrimido[4,5-d]pyridazin-5(6H)-one] was run?
**A.** 0.5 nM

**Q.** `COc1cc(Nc2ncc3c(=O)n(-c4ccccc4C)nc(-c4cccs4)c3n2)ccc1N1CCN(C(C)C)CC1` [Example 132, 2-{[4-(4-isopropylpiperazin-1-yl)-3-methoxyphenyl]amino}-6-(2-methylphenyl)-8-(2-thienyl)pyrimido[4,5-d]pyridazin-5(6H)-one] was tested. Which Ki did it give?
**A.** 0.7 nM

**Q.** For `Cc1cc(Nc2ncc3c(=O)n(-c4ccccc4C)nc(-c4ccco4)c3n2)ccc1N1CCN(C(C)C)CC1` [Example 133, 8-(2-furyl)-2-{[4-(4-isopropylpiperazin-1-yl)-3-methylphenyl]amino}-6-(2-methylphenyl)pyrimido[4,5-d]pyridazin-5(6H)-one], which Ki is on record?
**A.** 3 nM

**Q.** Which Ki does the source give for `Cc1ccccc1-n1nc(-c2ccccc2)c2nc(Nc3ccc(N4CCN(C(C)C)CC4)cc3)ncc2c1=O` [Example 134, 2-{[4-(4-isopropylpiperazin-1-yl)phenyl]amino}-6-(2-methylphenyl)-8-phenylpyrimido[4,5-d]pyridazin-5(6H)-one] here?
**A.** 0.6 nM

**Q.** Which Ki does the source give for `Cc1ccccc1-n1nc(-c2ccco2)c2nc(Nc3ccc(N4CCCC4=O)cc3)ncc2c1=O` [Example 135, 8-(2-furyl)-6-(2-methylphenyl)-2-{[4-(2-oxopyrrolidin-1-yl)phenyl]amino}pyrimido[4,5-d]pyridazin-5(6H)-one] here?
**A.** 8 nM

**Q.** Which Ki does the source give for `C=CCn1nc(-c2ccco2)c2nc(Nc3ccc(N4CCN(C(C)C)CC4)c(OC)c3)ncc2c1=O` [Example 136, 6-allyl-8-(2-furyl)-2-{[4-(4-isopropylpiperazin-1-yl)-3-methoxyphenyl]amino}pyrimido[4,5-d]pyridazin-5(6H)-one] here?
**A.** 14 nM

**Q.** `C=CCn1nc(-c2ccco2)c2nc(Nc3ccc(CN(C)C)cc3)ncc2c1=O` [Example 137, 6-allyl-2-({4-[(dimethylamino)methyl]phenyl}amino)-8-(2-furyl)pyrimido[4,5-d]pyridazin-5(6H)-one] was tested. Which Ki did it give?
**A.** 22 nM

**Q.** How did the Ki turn out when `COc1cc(Nc2ncc3c(=O)n(-c4ccccc4C)nc(-c4ccco4)c3n2)ccc1N1CCN(C(C)C)CC1` [Example 138, 8-(2-furyl)-2-{[4-(4-isopropylpiperazin-1-yl)-3-methoxyphenyl]amino}-6-(2-methylphenyl)pyrimido[4,5-d]pyridazin-5(6H)-one] was run?
**A.** 1.5 nM

**Q.** Which Ki does the source give for `C=CCn1nc(-c2ccccc2)c2nc(Nc3ccc(N4CCN(C(C)C)CC4)cc3)ncc2c1=O` [Example 139, 6-allyl-2-{[4-(4-isopropylpiperazin-1-yl)phenyl]amino}-8-phenylpyrimido[4,5-d]pyridazin-5(6H)-one] here?
**A.** 5 nM

**Q.** How did the Ki turn out when `C=CCn1nc(-c2ccco2)c2nc(Nc3ccc(S(=O)(=O)N4CCOCC4)cc3)ncc2c1=O` [Example 140, 6-allyl-8-(2-furyl)-2-{[4-(morpholin-4-ylsulfonyl)phenyl]amino}pyrimido[4,5-d]pyridazin-5(6H)-one] was run?
**A.** > 3140 nM

**Q.** How did the Ki turn out when `Cc1ccccc1-n1nc(-c2ccccc2)c2nc(Nc3ccc(N4CCCC4=O)cc3)ncc2c1=O` [Example 141, 6-(2-methylphenyl)-2-{[4-(2-oxopyrrolidin-1-yl)phenyl]amino}-8-phenylpyrimido[4,5-d]pyridazin-5(6H)-one] was run?
**A.** 7 nM

**Q.** How did the Ki turn out when `C=CCn1nc(-c2ccccc2)c2nc(Nc3ccc(N4CCCC4=O)cc3)ncc2c1=O` [Example 142, 6-allyl-2-{[4-(2-oxopyrrolidin-1-yl)phenyl]amino}-8-phenylpyrimido[4,5-d]pyridazin-5(6H)-one] was run?
**A.** 57 nM

**Q.** For `C=CCn1nc(-c2ccccc2)c2nc(Nc3ccc(CN(C)C)cc3)ncc2c1=O` [Example 143, 6-allyl-2-({4-[(dimethylamino)methyl]phenyl}amino)-8-phenylpyrimido[4,5-d]pyridazin-5(6H)-one], which Ki is on record?
**A.** 39 nM

**Q.** With `C=CCn1nc(-c2ccco2)c2nc(Nc3ccc4c(c3)CN(C)CC43CC3)ncc2c1=O` [Example 144, 6-allyl-8-(2-furyl)-2-[(2′-methyl-2′,3′-dihydro-1′H-spiro[cyclopropane-1,4′-isoquinolin]-7′-yl)amino]pyrimido[4,5-d]pyridazin-5(6H)-one] as the compound, how does the Ki read?
**A.** 2 nM

**Q.** How did the Ki turn out when `Cc1ccccc1-n1nc(-c2ccco2)c2nc(Nc3ccc4c(c3)CN(C)CC43CC3)ncc2c1=O` [Example 145, 8-(2-furyl)-2-[(2′-methyl-2′,3′-dihydro-1′H-spiro[cyclopropane-1,4′-isoquinolin]-7′-yl)amino]-6-(2-methylphenyl)pyrimido[4,5-d]pyridazin-5(6H)-one] was run?
**A.** 0.3 nM

**Q.** How did the Ki turn out when `C=CCn1nc(-c2ccco2)c2nc(Nc3ccc(N4CCN(C(C)C)CC4)c(C)c3)ncc2c1=O` [Example 146, 6-allyl-8-(2-furyl)-2-{[4-(4-isopropylpiperazin-1-yl)-3-methylphenyl]amino}pyrimido[4,5-d]pyridazin-5(6H)-one] was run?
**A.** 3 nM

**Q.** For `CC(C)N1CCCC(c2nn(-c3c(Cl)cccc3Cl)c(=O)c3cnc(Nc4ccc(N5CCN(C)CC5)cc4)nc23)C1` (stereo not drawn) [Example 147, 6-(2,6-dichlorophenyl)-8-(1-isopropylpiperidin-3-yl)-2-{[4-(4-methylpiperazin-1-yl)phenyl]amino}pyrimido[4,5-d]pyridazin-5(6H)-one], which Ki is on record?
**A.** 12 nM

**Q.** Which Ki does the source give for `CN1CCN(c2ccc(Nc3ncc4c(=O)n(-c5c(Cl)cccc5Cl)nc(C5CCNCC5)c4n3)cc2)CC1` [Example 148, 6-(2,6-dichlorophenyl)-2-{[4-(4-methylpiperazin-1-yl)phenyl]amino}-8-(piperidin-4-yl)pyrimido[4,5-d]pyridazin-5(6H)-one] here?
**A.** 16 nM

**Q.** `CN1Cc2cc(Nc3ncc4c(=O)n(-c5c(Cl)cccc5Cl)nc(-c5cnn(C)c5)c4n3)ccc2C2(CC2)C1` [Example 149, 6-(2,6-dichlorophenyl)-2-[(2′-methyl-2′,3′-dihydro-1′H-spiro[cyclopropane-1,4′-isoquinolin]-7′-yl)amino]-8-(1-methyl-1H-pyrazol-4-yl)pyrimido[4,5-d]pyridazin-5(6H)-one] was tested. Which Ki did it give?
**A.** 0.05 nM

**Q.** How did the Ki turn out when `Cc1cc(Nc2ncc3c(=O)n(-c4c(Cl)cccc4Cl)nc(-c4cnn(C)c4)c3n2)ccc1N1CCCN(C)CC1` [Example 150, 6-(2,6-dichlorophenyl)-2-{[3-methyl-4-(4-methyl-1,4-diazepan-1-yl)phenyl]amino}-8-(1-methyl-1H-pyrazol-4-yl)pyrimido[4,5-d]pyridazin-5(6H)-one] was run?
**A.** 0.1 nM

**Q.** For `CN1CCN(c2ccc(Nc3ncc4c(=O)n(-c5c(Cl)cccc5Cl)nc(-c5ccn(C)n5)c4n3)cc2)CC1` [Example 151, 6-(2,6-dichlorophenyl)-2-{[4-(4-methylpiperazin-1-yl)phenyl]amino}-8-(1-methyl-1H-pyrazol-3-yl)pyrimido[4,5-d]pyridazin-5(6H)-one], which Ki is on record?
**A.** 0.07 nM

**Q.** Which Ki does the source give for `Cc1cc(Nc2ncc3c(=O)n(-c4c(Cl)cccc4Cl)nc(-c4ccn(C)n4)c3n2)ccc1N1CCCN(C)CC1` [Example 152, 6-(2,6-dichlorophenyl)-2-{[3-methyl-4-(4-methyl-1,4-diazepan-1-yl)phenyl]amino}-8-(1-methyl-1H-pyrazol-3-yl)pyrimido[4,5-d]pyridazin-5(6H)-one] here?
**A.** 0.04 nM

**Q.** For `CN1Cc2cc(Nc3ncc4c(=O)n(-c5c(Cl)cccc5Cl)nc(-c5ccn(C)n5)c4n3)ccc2C2(CC2)C1` [Example 153, 6-(2,6-dichlorophenyl)-2-[(2′-methyl-2′,3′-dihydro-1′H-spiro[cyclopropane-1,4′-isoquinolin]-7′-yl)amino]-8-(1-methyl-1H-pyrazol-3-yl)pyrimido[4,5-d]pyridazin-5(6H)-one], which Ki is on record?
**A.** 0.05 nM

**Q.** How did the Ki turn out when `CN1CCN(c2ccc(Nc3ncc4c(=O)n(-c5ccccc5)nc(-c5ccncc5)c4n3)cc2)CC1` [Example 154, 2-{[4-(4-methylpiperazin-1-yl)phenyl]amino}-6-phenyl-8-(pyridin-4-yl)pyrimido[4,5-d]pyridazin-5(6H)-one] was run?
**A.** 9 nM

**Q.** `CN1CCN(c2ccc(Nc3ncc4c(=O)n(-c5ccccc5Cl)nc(-c5ccncc5)c4n3)cc2)CC1` [Example 155, 6-(2-chlorophenyl)-2-{[4-(4-methylpiperazin-1-yl)phenyl]amino}-8-(pyridin-4-yl)pyrimido[4,5-d]pyridazin-5(6H)-one] was tested. Which Ki did it give?
**A.** 0.4 nM

**Q.** For `CN1CCN(c2ccc(Nc3ncc4c(=O)n(-c5c(Cl)cccc5Cl)nc(-c5ccncc5)c4n3)cc2)CC1` [Example 156, 6-(2,6-dichlorophenyl)-2-{[4-(4-methylpiperazin-1-yl)phenyl]amino}-8-(pyridin-4-yl)pyrimido[4,5-d]pyridazin-5(6H)-one], which Ki is on record?
**A.** 0.03 nM

**Q.** For `CN1CCN(c2ccc(Nc3ncc4c(=O)n(-c5c(Cl)cccc5Cl)nc(-c5cccc(CN6CCCCC6)c5)c4n3)cc2)CC1` [Example 157, 6-(2,6-dichlorophenyl)-2-{[4-(4-methylpiperazin-1-yl)phenyl]amino}-8-[3-(piperidin-1-ylmethyl)phenyl]pyrimido[4,5-d]pyridazin-5(6H)-one], which Ki is on record?
**A.** 0.05 nM

**Q.** Which Ki does the source give for `CN1CCN(c2ccc(Nc3ncc4c(=O)n(-c5c(Cl)cccc5Cl)nc(-c5cccc(CNC6CCC6)c5)c4n3)cc2)CC1` [Example 158, 8-{3-[(cyclobutylamino)methyl]phenyl}-6-(2,6-dichlorophenyl)-2-{[4-(4-methylpiperazin-1-yl)phenyl]amino}pyrimido[4,5-d]pyridazin-5(6H)-one] here?
**A.** 0.2 nM

**Q.** For `COC(=O)c1cccc(-c2nn(-c3c(Cl)cccc3Cl)c(=O)c3cnc(Nc4ccc(N5CCN(C)CC5)cc4)nc23)n1` [Example 159, methyl 6-[6-(2,6-dichlorophenyl)-2-{[4-(4-methylpiperazin-1-yl)phenyl]amino}-5-oxo-5,6-dihydropyrimido[4,5-d]pyridazin-8-yl]pyridine-2-carboxylate], which Ki is on record?
**A.** 0.06 nM
